Assay results from PubChem BioAssay (NCI).
Where “and” joins values, the source holds several entries; their conditions need not be identical. Equal values may be shown once.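 Five concentrations, 48 hours, 96-well plates. Abbreviation: GI50, concentration required for 50% inhibition of growth. TGI is the concentration that stops growth completely.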

Legend:
Test in all cases: DTP human tumour cell line panel, 48 h
PC-3 prostate = system: PC-3 prostate
SF-268 CNS = system: SF-268 CNS
KM12 colon = system: KM12 colon
HOP-92 NSCLC = system: HOP-92 NSCLC
BT-549 breast = system: BT-549 breast
SF-539 CNS = system: SF-539 CNS
786-0 renal = system: 786-0 renal
NCI-H460 lung = system: NCI-H460 lung
M19-MEL melanoma = system: M19-MEL melanoma

| Structure (SMILES) | GI50 (PC-3 prostate) | TGI (PC-3 prostate) | GI50 (SF-268 CNS) | TGI (SF-268 CNS) | GI50 (KM12 colon) | TGI (KM12 colon) | GI50 (HOP-92 NSCLC) | TGI (HOP-92 NSCLC) | GI50 (BT-549 breast) | TGI (BT-549 breast) | GI50 (SF-539 CNS) | TGI (SF-539 CNS) | GI50 (786-0 renal) | TGI (786-0 renal) | GI50 (NCI-H460 lung) | TGI (NCI-H460 lung) | TGI (M19-MEL melanoma) |
| --- | --- | --- | --- | --- | --- | --- | --- | --- | --- | --- | --- | --- | --- | --- | --- | --- | --- |
| CCCCCCCCCCCCSC1=C(Cl)C(=O)C(OC)=C(OC)C1=O | 1.18 µM | 9.09 µM | 3.08 µM | 16.1 µM | 1.85 µM | 11.6 µM | 2.67 µM | 16.3 µM | 1.2 µM | 9.35 µM | 2.81 µM | 11.9 µM | 4.18 µM | 19.2 µM | 2.15 µM | 11.1 µM | – |
| COc1cc2c(c(OC)c1OC)-c1ccc(OC)c(=O)cc1[C@@H](NC(C)=O)CC2 | – | > 100 µM | – | – | – | – | – | – | – | > 70.9 µM | – | – | – | > 100 µM | 0.625 µM | – | > 522 µM |
| COc1cc(/C(=C2/O[C@@H]([C@H]3COC(C)(C)O3)[C@H]3OC(C)(C)O[C@@H]23)c2ccc3ccccc3c2)cc(OC)c1OC | 5.71 µM | > 100 µM | 3.13 µM | 15.9 µM | 6 µM | > 100 µM | 2.67 µM | 13.3 µM | 3.22 µM | 8.1 µM | 14.3 µM | 79 µM | 2.3 µM | 4.47 µM | 4.1 µM | > 100 µM | – |
| O=C(OC1CCC2OOC1O2)c1ccc([N+](=O)[O-])cc1 (stereo not drawn) | – | – | – | > 100 µM | – | > 100 µM | – | – | – | – | – | > 100 µM | – | > 100 µM | – | > 100 µM | > 100 µM |
| C[C@]12CC[C@@H]3c4cc(O)c(O)cc4CC[C@H]3[C@@H]1CC[C@@H]2O | 10.5 µM | > 100 µM | 5.81 µM | > 83.2 µM | 8.23 µM | 22.3 µM | 3.32 µM | 29 µM | 1.78 µM | 42.3 µM | 1.64 µM | 5.45 µM | 6.08 µM | > 100 µM | 3.75 µM | 18.1 µM | – |
| CCCCCCn1c(-c2ccc(C(=O)O/N=C(\N)c3ccc4ccccc4c3)cc2)nc(-c2ccccc2)c1-c1ccccc1 | 7.32 µM | > 100 µM | 6.71 µM | > 100 µM | > 100 µM | > 100 µM | 1.92 µM | 7.77 µM | 8 µM | > 100 µM | 12.5 µM | > 100 µM | 7.63 µM | > 100 µM | > 100 µM | > 100 µM | – |
| COC(=O)C1=COC(C)C2CN3CCc4c([nH]c5cc(OC)c(OC)cc45)C3CC12 (stereo not drawn) | – | > 100 µM | – | > 100 µM | > 100 µM and 37.2 µM | > 100 µM | – | > 100 µM | > 100 µM and 18.5 µM | > 100 µM and 61.6 µM | – | > 100 µM | – | > 100 µM | 67.1 µM and 22.4 µM | > 100 µM | – |
| CC(N)(/C=C/c1ccccc1)C(=O)O (stereo not drawn) | – | > 100 µM | – | > 100 µM | – | > 100 µM | – | > 100 µM | – | > 100 µM | – | > 100 µM | – | > 100 µM | – | > 100 µM | – |
| Cc1ccc(-c2cc3c4c(nc5ccccc53)C(=O)c3cccnc3-c4n2)cc1 | 17.3 µM | > 83.8 µM | 17 µM | 61.1 µM | 6.46 µM | 25.7 µM | 26.5 µM | > 100 µM | 17.4 µM | 41 µM | 6.68 µM | 26.7 µM | 18.2 µM | 52.5 µM | 3.14 µM | 16.4 µM | – |
| O=C(/C(=C/c1ccc([N+](=O)[O-])cc1)SCc1ccc(Cl)cc1)c1ccc(F)cc1 | 2.12 µM | 5.74 µM | 4.95 µM | 21.6 µM | 2.71 µM | 8.08 µM | 10.2 µM | 34 µM | 2.06 µM | 4.56 µM | 3.47 µM | 12.6 µM | 2.66 µM | 7.9 µM | 5.79 µM | 24.7 µM | – |
| CCCCCCCCCCCC(=O)N1CCN(C(C)=O)CC1 | 17.8 µM | 34.5 µM | 39.8 µM | > 100 µM | 25 µM | 56.5 µM | 11.5 µM | 27.4 µM | 24.6 µM | 58.1 µM | 18 µM | 32.4 µM | 16.9 µM | 31.1 µM | 19.8 µM | 38.1 µM | – |
| C[C@]12CC[C@@H]3c4cc(OC(F)F)c(OS(N)(=O)=O)cc4CC[C@H]3[C@@H]1CC[C@@H]2OS(N)(=O)=O | 1.41 µM | 30.6 µM | 6.44 µM | 49.8 µM | 1.62 µM | 20 µM | 1.15 µM | 10.6 µM | 3.19 µM | 20.4 µM | 0.781 µM | 3.84 µM | 1.8 µM | 16.5 µM | 1.45 µM | 15.4 µM | – |
| COc1cc(-c2oc3c(OC)cc(OC)c(O)c3c(=O)c2OC)cc(OC)c1OC | – | > 100 µM | – | > 100 µM | – | > 100 µM | – | > 100 µM | – | > 100 µM | – | > 100 µM | – | > 100 µM | – | > 100 µM | – |
| COc1cccc(/C=N/NC(=O)c2ccccc2N2CCCC2)c1O | 6.48 µM | > 100 µM | 6.46 µM | > 100 µM | 38.4 µM | > 100 µM | 4.67 µM | > 100 µM | 12.6 µM | > 100 µM | 3.73 µM | 24.1 µM | 3.58 µM | > 100 µM | 3.25 µM | 52 µM | – |
| COc1cc2c(cc1Cc1cccc(Cl)c1F)c(=O)c(C(=O)O)cn2[C@@H](CO)C(C)C | 2.59 µM | 9.21 µM | 5.42 µM | 19.1 µM | 4.03 µM | 13.1 µM | 1.45 µM | 6.34 µM | 2.09 µM | 8.66 µM | 3.39 µM | 10.7 µM | 3.55 µM | 14.9 µM | 3.07 µM | 10.6 µM | – |
| S=C(NCCNC(=S)[S][Sn]([c]1ccccc1)([c]1ccccc1)[c]1ccccc1)[S][Sn]([c]1ccccc1)([c]1ccccc1)[c]1ccccc1 | 0.0311 µM | 0.153 µM | 0.0416 µM | 0.123 µM | 0.0197 µM | 0.0652 µM | 0.0102 µM | 0.0493 µM | 0.0799 µM | 0.183 µM | 0.0682 µM | 0.203 µM | 0.0366 µM | 0.104 µM | 0.0169 µM | 0.0575 µM | – |
| Cn1cc(C2=C(c3c4n(c5ccccc35)CCC(CN)C4)C(=O)NC2=O)c2ccccc21 (stereo not drawn) | 2.77 µM | 6.59 µM | 3.95 µM | 7.65 µM | 3.42 µM | 6.92 µM | 5.25 µM | 12.3 µM | 4.06 µM | 7.75 µM | 3.63 µM | 7.16 µM | 4.25 µM | 8.38 µM | 3.32 µM | 7.05 µM | – |
| CCN1C(=O)N(CC)C2C1NN=c1s/c(=C\c3ccco3)c(=O)n12 (stereo not drawn) | 0.455 µM | > 100 µM | 0.791 µM | > 100 µM | 0.394 µM | > 100 µM | 0.349 µM | > 100 µM | 0.791 µM | > 100 µM | 0.402 µM | 6.48 µM | 0.571 µM | > 100 µM | 0.403 µM | > 100 µM | – |
| CC1=NN(c2ccc(S(=O)(=O)O)cc2)C(=O)/C1=C/c1ccc(Cl)cc1 | – | > 100 µM | – | > 100 µM | – | > 100 µM | – | > 100 µM | – | > 100 µM | – | > 100 µM | – | > 100 µM | – | > 100 µM | – |
| C[C@@H]1CCC([C@@H](C)[C@H]2CC[C@H]3[C@@H]4CC[C@H]5C[C@@H](O)CC[C@]5(C)[C@H]4CC[C@]23C)=NC1 | – | > 100 µM | – | > 100 µM | – | > 59.7 µM | – | > 100 µM | – | > 85 µM | – | > 100 µM | – | > 56.2 µM | – | 48.9 µM | – |
| CC1(C)CC[C@]2(C(=O)O)CC[C@]3(C)C(=CC[C@@H]4[C@@]5(C)C[C@H](O)[C@H](O)[C@@](C)(C(=O)O)[C@@H]5CC[C@]43C)[C@@H]2C1 | – | > 100 µM | – | > 100 µM | – | > 100 µM | – | > 100 µM | – | > 100 µM | – | > 100 µM | – | > 100 µM | – | > 100 µM | – |
| CCCCCCCCC/C(=N\NC(=O)c1ccncc1)c1ccc(O)c(O)c1O | 1.6 µM | > 100 µM | 0.142 µM | > 23.4 µM | 0.348 µM | > 100 µM | 0.385 µM | > 100 µM | 0.36 µM | 67.2 µM | 0.294 µM | 8.71 µM | 0.216 µM | 5.75 µM | 0.0705 µM | 1.1 µM | – |
| COc1ccc2c(c1)oc(=O)c1cc(OC)ccc12 | > 100 µM | > 100 µM | > 100 µM | > 100 µM | > 100 µM | > 100 µM | > 100 µM | > 100 µM | > 100 µM | > 100 µM | > 100 µM | > 100 µM | > 100 µM | > 100 µM | > 100 µM | > 100 µM | – |
| O=C([O][Hg][CH2]C1OCCOC1[CH2][Hg][O]C(=O)c1ccccc1)c1ccccc1 (stereo not drawn) | 6.52 µM | 14.6 µM | 17.2 µM | 30.9 µM | 16.3 µM | 30.1 µM | 37.6 µM | 59.4 µM | 8.22 µM | 20.4 µM | 13.3 µM | 29.7 µM | 12.9 µM | 25.5 µM | 19.1 µM | 36.2 µM | – |
